Measured values reported in patent publication US6623766B1, “Process for insecticidal formulation effective in controlling malarial vector, mosquitoes” (Council of Scientific and Industrial Research, priority 2002, dated 2003).

System: mosquito (Anopheles stephensi) larvae
Experiment: Standard WHO larvicidal test (WHO, 1981, slightly modified) on fourth-stage mosquito larvae, mortality after 24 hours
Type: in vivo
Method: (§1) Essential oil (0.1 ml) obtained from plant genus Foeniculum vulgare was first mixed with Tween-80 (0.1 ml) of 0.001% concentration and then the mixture was dissolved in water to make the solution of 0.01% concentration. This solution was tested against mosquito (Anopheles stephensi) larvae in the laboratory.
(§2) Standard WHO test (WHO, 1981) was employed with slight modification in the test procedure. A single fourth-stage larva was put into each of fifty vials containing 5 ml of the got test solution of each concentration. Single vial with one larva was used in one replication. Thus a total of 50 insects were used in fifty replications. Mortality data for mosquito larvae were recorded after 24 hours.
as §1, with “Mentha spicata var. viridis” for “Foeniculum vulgare”
as §2, with “the” for “the got”
as §1, with “Zingiber officinale” for “Foeniculum vulgare”
Tween-80 purchased from Hi-Media, Mumbai, India, an emulsifying agent (0.1-ml) of 0.001% concentration was dissolved in water to make the solution of 0.01% concentration. This solution was tested against mosquito (Anopheles stephensi) larvae in the laboratory.
as §1, with “oil (0.05 ml each)” for “oil (0.1 ml)”, “vulgare and Mentha spicata var. viridis were” for “vulgare was”
as §1, with “oil (0.05 ml each)” for “oil (0.1 ml)”, “vulgare and Zingiber officinale were” for “vulgare was”, “laboratory. […]” for “laboratory.”

Compound	Mean % mortality after 24 hours (in vivo)	mortality (in vivo)	Mean % mortality after 24 hours (0.0016% concentration (standard), Anopheles stephensi larvae, Table 1 summary)	mortality (0.0016% concentration, fourth-stage larvae, recorded after 24 hours, laboratory conditions)
Tween-80 [Example 4]	0%	0.0%	–	–
C/C=C\c1cc(OC)c(OC)cc1OC [Example 14, β-Asarone]	–	–	100%	100.0%
